{
  "source": "patent US8846330B2",
  "about": "“Methods and kits for the diagnosis of RyR1-related diseases” (The Henry M. Jackson Foundation for the Advancement of …, priority 2008, dated 2014)",
  "assay_type_in_all_cases": "cell-based",
  "key": {"lymphocyte cells [1]": {"test_system": "lymphocyte cells", "assay": "4CmC-induced adenosine plus inosine in cultured swine lymphocytes (Example 2)", "details": "for adenosine plus inosine level upon stimulation with 4CmC, mean±SEM: 5 mM 4CmC", "procedure": "Lymphocyte cells were isolated from whole arterial blood sample (40 ml) obtained from homozygous recessive MHS (n=5) and normal (n=3) swine by the Ficoll-Hypaque centrifugation technique. Lymphocyte cells were then cultured in RPMI-1640 media supplemented with 10% fetal bovine serum plus 100 units/liter penicillin at 37° C. under 5% CO2 for 2 to 3 weeks. After cell culture period, cell's (5−15×10^4 cells) were suspended in Hanks' balanced salt solution (HBSS)+1% bovine serum albumin and treated with specific RyR1 agonist 4-chloro-m-cresol (4CmC, 5 mM) at 37° C. in the presence and absence of inhibitor of adenosine deaminase erythro-9-(2-hydroxy-3-nonyl) adenine (EHNA, 0.1 mM) for 30 minutes. After purification using 12% HClO4 followed by centrifugation (10 minutes, 4000 RPM), aliquot of sample (50 μl) was assayed for adenosine and inosine content using high performance liquid chromatography (HPLC). Data are normalized to per 1 million cells, compared using one way ANOVA, and presented as mean±SEM. P<0.05 considered significant."}, "lymphocyte cells [2]": {"test_system": "lymphocyte cells", "assay": "4CmC-induced adenosine in human lymphocyte / immortalized B cells (Example 3)", "details": "for ADO level at maximum of 4CmC dose response, mean±SEM: 2 mM 4CmC, EHNA 0.1 mM"}, "lymphocyte cells [3]": {"test_system": "lymphocyte cells", "assay": "4CmC-induced adenosine in swine lymphocyte cells, nucleosides assay (Example 4)", "details": "for EC50: Sus scrofa, Lymphocyte; for peak ADO level upon 4CmC stimulation, mean±SEM: near 1 mM 4CmC", "procedure": "Isolation of lymphocytes from whole blood: Lymphocyte cells were isolated from whole blood by Ficoll-Hypaque density gradient centrifugation technique (see Boyum A., Scand. J. Clip. Lab. 97:77-89 (1968)). Isolated lymphocyte cells were dispensed into 3-volume normal Hanks' balanced salt solution (HBSS) and centrifuged (10 minutes at 1000 RPM). The pellet was re-suspended in HBSS to lyse contaminating erythrocytes and spun. The later step was repeated one more time. To maintain simplicity of the protocol for possible MH diagnostic purposes no further purification was attempted. Lymphocyte cells were then cultured in RPMI-1640 media supplemented with 10% fetal bovine serum, […] penicillin and 2 mM glutamine. Cell cultures were incubated at 37° C. in a humidified chamber with 5% CO2. All experiments were completed within 4 days after isolation of lymphocyte cells from whole blood samples.\nNucleosides Assay Protocol: Briefly, lymphocyte cells (1−2×10^6 cells/test) were suspended in HBSS with or without Ca^2+/Mg^2+ (as indicated for each experiment) plus 0.1% bovine serum albumin (BSA). Experiments were carried out in the presence of the adenosine deaminase inhibitor erythro-9-(2-hydroxy-3-nonyl) adenine-HCl ([…]) to prevent deamination of adenosine to inosine (Lorbar et al., J Mol Cell Cardiol 31: 401-12 (1999)) and incubated at 37° C. for 10 minutes followed by treatment with different 4CmC concentrations (0.05-10 mM). Further incubation at 37° C. for an additional 45 minutes was also carried out. Final volumes of the test tubes were adjusted to 0.2 ml using HBSS buffer. Termination of the cell activity and purification of samples was accomplished by addition of 0.1 ml 12% perchloric acid followed by centrifugation at 5000 RPM for 10 minutes. Aliquots of the supernatant (50 μl) were assayed for adenosine and inosine content using HPLC.\nHPLC Conditions: The HPLC system consisted of a Waters Symmetry C18 column (4.6×250 mm) and mobile phase of 94% KH2PO4 (50 mM, pH 4.6) containing 1-heptanesulfonic acid (0.5 mM) and 6% acetonitrile. Under these conditions, retention times for inosine and adenosine were 4 and 7.3 min, respectively. Peak width of inosine and adenosine were 18 and 36 seconds, respectively. Eluting compounds were detected by their absorbance at 254 nm using a Waters photodiode array detector (model 996). Sample adenosine and inosine concentrations were obtained using a calibrated standard curve of concentrations vs. peak area.\nStatistics: Sample nucleosides concentrations were normalized to represent per 1 million cells and presented as means±SEM. The t-test was applied to test for differences between agonist-induced nucleosides in lymphocyte cells from MHS and normal swine. A P<0.05 considered to indicate statistical significance."}},
  "note": "“Also recorded” adds a separate entry of the source. Where two headings read alike, the source gives them in different places.",
  "data": [
    {"compound": "Cc1cc(O)ccc1Cl", "note": "[4CmC, 4-chloro-m-cresol]", "values": [
      {"measurement": "adenosine plus inosine level upon stimulation with 4CmC, mean±SEM", "setting": "lymphocyte cells [1]; MHS swine (n=5)", "result": "8.06 ± 0.9", "unit": "µM"},
      {"measurement": "adenosine plus inosine level upon stimulation with 4CmC, mean±SEM", "setting": "lymphocyte cells [1]; normal swine (n=3)", "result": "1.16 ± 0.3", "unit": "µM"},
      {"measurement": "increase of nucleoside production on 4CmC stimulation", "setting": "lymphocyte cells [1]; lymphocytes from MHS swine", "result": "nine-fold increase"},
      {"measurement": "effect of 4CmC stimulation on nucleoside (adenosine plus inosine) production", "setting": "lymphocyte cells [1]; lymphocytes from normal swine", "result": "minimal, if any, effect"},
      {"measurement": "ADO level at maximum of 4CmC dose response, mean±SEM", "setting": "lymphocyte cells [2]; MHS cells", "result": "1.71 ± 0.13", "unit": "µM"},
      {"measurement": "ADO level at maximum of 4CmC dose response, mean±SEM", "setting": "lymphocyte cells [2]; normal cells", "result": "0.61 ± 0.11", "unit": "µM"},
      {"measurement": "4CmC-induced adenosine in MHS (CHCT-positive) versus normal / CHCT-negative lymphocyte cells", "setting": "lymphocyte cells [2]; FIG. 5 and 6", "result": "significantly higher; also recorded: significantly greater"},
      {"measurement": "4CmC concentration at which ADO levels maximized", "setting": "lymphocyte cells [2]; human lymphocytes", "result": 2, "unit": "mM"},
      {"measurement": "4CmC-induced ADO in lymphocyte cells from MHS swine versus normal swine", "setting": "lymphocyte cells [3]", "result": "significantly greater; also recorded: significantly higher"},
      {"measurement": "4CmC-induced ADO, mean±SEM", "setting": "lymphocyte cells [3]; 1 mM 4CmC, Ca2+/Mg2+-free HBSS, normal swine (n=6)", "result": "0.244 ± 0.026", "unit": "µM"},
      {"measurement": "basal plus 4CmC-induced ADO range", "setting": "lymphocyte cells [3]; 1 mM 4CmC, MHS swine cells", "result": "0.250 to 0.537", "unit": "µM"},
      {"measurement": "4CmC-induced ADO, mean±SEM", "setting": "lymphocyte cells [3]; 1 mM 4CmC, normal HBSS, normal swine (n=6)", "result": "0.326 ± 0.023", "unit": "µM"},
      {"measurement": "increase in ADO formation in the presence of extracellular Ca2+", "setting": "lymphocyte cells [3]; 1 mM 4CmC, normal swine", "result": "25.2±5.1", "unit": "%"},
      {"measurement": "basal plus 4CmC-induced ADO range", "setting": "lymphocyte cells [3]; 1 mM 4CmC, normal swine cells", "result": "0.145 to 0.209", "unit": "µM"},
      {"measurement": "4CmC-induced ADO, mean±SEM", "setting": "lymphocyte cells [3]; 2 mM 4CmC, absence of extracellular Ca2+, normal swine", "result": "0.167 ± 0.018", "unit": "µM"},
      {"measurement": "4CmC-induced adenosine relative to basal adenosine level", "setting": "lymphocyte cells [3]; 2 mM 4CmC, no FCCP, Ca2+/Mg2+ free HBSS, normal swine (n=5)", "result": 5.8, "unit": "fold"},
      {"measurement": "increase in 4CmC-induced ADO formation in the presence of extracellular Ca2+", "setting": "lymphocyte cells [3]; 2 mM 4CmC, normal swine", "result": "41±3.3", "unit": "%"},
      {"measurement": "4CmC-induced ADO, mean±SEM", "setting": "lymphocyte cells [3]; 2 mM 4CmC, presence of extracellular Ca2+, normal swine", "result": "0.284 ± 0.023", "unit": "µM"},
      {"measurement": "increase in sensitivity to 4CmC in the MHS cell population", "setting": "lymphocyte cells [3]; MHS vs normal swine cells", "result": "~60", "unit": "%"},
      {"measurement": "EC50", "setting": "lymphocyte cells [3]; read-out: estimated EC50 of 4CmC for ADO formation, MHS swine cells", "result": "550 ± 60", "unit": "µM"},
      {"measurement": "EC50", "setting": "lymphocyte cells [3]; read-out: estimated EC50 of 4CmC for ADO formation, normal swine cells", "result": "340 ± 40", "unit": "µM"},
      {"measurement": "peak ADO level upon 4CmC stimulation, mean±SEM", "setting": "lymphocyte cells [3]; normal HBSS, MHS swine cells (n=7)", "result": "0.389 ± 0.033", "unit": "µM"},
      {"measurement": "peak ADO level upon 4CmC stimulation, mean±SEM", "setting": "lymphocyte cells [3]; normal HBSS, normal swine cells (n=7)", "result": "0.199 ± 0.005", "unit": "µM"},
      {"measurement": "4CmC concentration at which ADO levels peaked", "setting": "lymphocyte cells [3]; swine lymphocytes, normal HBSS", "result": "~1", "unit": "mM"}
    ]}
  ]
}
